Key:
[1] = tested on: postnatal substantia nigra (SN) neurons; assay: MPTP-induced cell loss in postnatal substantia nigra cultures; type: cell-based, mouse; details: for loss of T-positive neurons: MPTP 50×10-9
SNpc neurons = assay: Count of TH-positive SNpc cells one week after subcutaneous MPTP; details: 80 mg/kg MPTP SC (4 x 20 mg/kg)
Procedure: C57BL/6J (Jackson Laboratory), Swiss-Webster (SWR, Harlan) and C57BL/6J×SWR used in these experiments were between 3 and 5 months of age. […] All animals were generated within our vivarium at St. Jude Children's Hospital and were maintained on a 12:12 hour light: dark cycle with ad libitum food and water. Animals were treated in accord with Animal Care and Use Committee requirements. The analysis presented here is based on neuroanatomical and morphometric data from 58 animals, all of which were genotyped as described below.
Each animal was given a total of 80 mg/kg of MPTP, using a dosage regimen of 4 equal subcutaneous injections of 20 mg/kg, one given every 2 hours. Mice were monitored over the next 24 hours for the degree of mortality and the presence of seizures. […]
Prior to counting TH-positive cells, the rostral to caudal boundaries of the SNpc were identified (German, D. C., et al., The Neurotoxin MPTP Causes Degeneration of Specific Nucleus A8, A9 and A10 Dopaminergic Neurons in the Mouse, Neurodegeneration, 5:299-312 (1996)). […] TH-positive cells within the SNpc in one section per slide were counted using a 20× objective (total magnification 200×). […] The number of cells in the SNpc from several animals were also counted using unbiased stereological measurements using the Bioquant image analysis system (R & 1 Biometrics, Nashville, Tenn.).

[2] = tested on: embryonic midbrain neurons; details: C57B1/6 and Swiss-Webster cultures from embryonic midbrain; cited from earlier work
[3] = tested on: glutathione S-transferase pi2 (GSTp2) mRNA; assay: Real time PCR of GSTp2 mRNA in substantia nigra after MPTP; type: in vivo, mouse; details: for expression of GSTp2: C57B1/6 mice; for GSTp2 levels: SW mice
Source text: Using real time PCR technology we are able to measure relative or absolute mRNA levels in from very small sample pools. The RT-PCR reaction includes a forward primer, a primer with a fluorescent 5′ reporter dye and a 3′ quencher dye, and a reverse primer, constructed to hybridize with the target of interest. The 5′ to 3′ activity of the DNA polymerase cleaves the primer between the reporter and the quencher only if the primer hybridizes to the target. The primer is then displaced from the target, polymerization of the strand continues, and the produce accumulates with each cycle. The exponential amplification of product correlates with the initial number of target molecules when normalized to an endogenous reference, and the threshold cycle calculated (a cycle during which there is an exponential accumulation of produce occurring), as long as the efficiency of the target amplification and the efficiency of the reference amplification are approximately equal. To examine the mRNA expression levels of GSTp2, we used real time PCR analysis to examine baseline levels in C57B1/6 and SW mice. […] The expression pattern in SW mice is different.
Higuchi et al (Higuchi R, et al., Simultaneous Amplification and Detection of Specific DNA Sequences, Biotech. (NY) 10:413-17 (1992)) pioneered the analysis of PCR kinetics by constructing a system that detects PCR products as they accumulate. This “real-time” system includes the intercalator ethidium bromide in each amplification reaction, an adapted thermal cycler to irradiate the samples with ultraviolet light, and detection of the resulting fluorescence with a computer-controlled cooled CCD camera. mRNA amplification produces increasing amounts of double-stranded DNA, which binds ethidium bromide, resulting in an increase in fluorescence. By plotting the increase in fluorescence versus cycle number, this method allows one to make precise quantitative measurements of mRNA expression. […]
Higuchi et al (Higuchi R, et al., Simultaneous Amplification and Detection of Specific DNA Sequences, Biotechnology (N Y) 10:413-17 (1992)) pioneered the analysis of PCR kinetics by constructing a system that detects PCR products as they accumulate. This “real-time” system includes the intercalator ethidium bromide in each amplification reaction, an adapted thermal cycler to irradiate the samples with ultraviolet light, and detection of the resulting fluorescence with a computer-controlled cooled CCD camera. Amplification produces increasing amounts of double-stranded DNA, which binds ethidium bromide, resulting in an increase in fluorescence. By plotting the increase in fluorescence versus cycle number, this method […] allows one to make precise quantitative measurements of mRNA expression.
We will be quantitating levels of glutathione S-transferase pi2 mRNA using this technique in place of traditional Northern blots since we have a limited amount of material to generate mRNA and real-time PCR amplification can give precise results with a small amount of sample material. […] Quantitative measurements are made based on the amount of fluorescence detected by amplification of the intervening primer. Details of this method are presented in numerous papers such as (Freeman W M, et al., Quantitative RT-PCR: Pitfalls and Potential. Biotechniques 26:112-122, 124-115 (1999)) as well as from the ABI website. […]

Q: Which “loss of T-positive neurons” value ([1]; SN cultures derived from SWR mice) does the source give for `CN1CC=C(c2ccccc2)CC1` [MPTP, 1-methyl-4-phenyl-1,2,3,6-tetrahydropyridine] here?
A: 10±3%

Q: And the “loss of T-positive neurons” value ([1]; SN cultures from C57B1/6 mice)?
A: 50±5%

Q: And the “percent cell loss in vitro as fraction of the in vivo value” ([1]; in vitro SN culture versus in vivo)?
A: approximately 80%

Q: What about the “number of SNpc neurons following MPTP treatment” value (SNpc neurons; C57B1/6 animals) of the same compound?
A: 3300±200

Q: And the “number of SNpc neurons following MPTP treatment” value (SNpc neurons; SWR animals)?
A: 5480+/−239

Q: And the cell death [2]?
A: little cell death

Q: And the “expression of GSTp2” value ([3]; 24 hours after MPTP)?
A: 50%

Q: And the “expression of GSTp2” value ([3]; eight hours after the first injection of MPTP)?
A: increases

Q: And the GSTp2 levels ([3]; 8 hours after administration of MPTP)?
A: decrease

Q: And the GSTp2 levels ([3]; 24 hours after MPTP)?
A: return to baseline levels

Q: And the “lower induction of glutathione S-transferase pi2 in C57B1/6 mice compared to Swiss-Webster” value ([3]; forty eight hours after MPTP administration)?
A: 50%
